Laboratory results reported in patent US20110065706A1, “Therapeutic Agents 812” (AstraZeneca AB, priority 2009, published 2011).

Target: T1, human GPR119 (Homo sapiens, UniProt Q8TDV5)
T1 construct: expressed in transfected cells; host or cells: HEK 293s
T1 sequence (Q8TDV5 1-335): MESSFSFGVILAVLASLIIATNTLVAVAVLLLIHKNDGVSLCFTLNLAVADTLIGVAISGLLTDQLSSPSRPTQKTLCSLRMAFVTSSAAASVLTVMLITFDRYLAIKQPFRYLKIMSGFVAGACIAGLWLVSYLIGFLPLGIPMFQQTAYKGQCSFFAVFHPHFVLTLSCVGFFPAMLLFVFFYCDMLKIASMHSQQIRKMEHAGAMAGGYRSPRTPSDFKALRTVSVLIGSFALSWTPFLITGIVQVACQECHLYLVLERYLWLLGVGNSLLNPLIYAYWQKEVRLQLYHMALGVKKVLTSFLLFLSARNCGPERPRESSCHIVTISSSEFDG
Assay: Cyclic AMP (HTRF cAMP) assay for human GPR119, Method A
Assay type: cell-based
Details: HEK293S, 0.75 h; Method A; HEK 293s cells over-expressing human GPR119; percent effect at top concentration 30 μM relative to maximum (50 μM Oleoylethanolamide) and minimum (1% DMSO) controls

Point of comparison: `N#Cc1cnccc1COc1cnc(N2CCN(C(=O)OC3COC3)CC2)nc1` [Example 77, oxetan-3-yl 4-(5-((3-cyanopyridin-4-yl)methoxy)pyrimidin-2-yl)piperazine-1-carboxylate], activation at 30 µM 92%. Against it:
- C[C@@H]1CN(C(=O)O[C@@H](C)C(F)(F)F)CCN1c1ncc(OCc2ccncc2C#N)cn1 [Example 104, (R)-((S)-1,1,1-trifluoropropan-2-yl)4-(5-((3-cyanopyridin-4-yl)methoxy)pyrimidin-2-yl)-3-mcthylpipcrazine-1-carboxylate] — higher, 315%
- C[C@@H]1CN(C(=O)OC2CCOC2)CCN1c1ncc(OCc2ccc(S(C)(=O)=O)cc2)cn1 (stereo partly drawn) [Example 78, (3R)-Tetrahydrofuran-3-yl 3-methyl-4-(5-(4-(methylsulfonyl)benzyloxy)pyrimidin-2-yl)piperazine-1-carboxylate] — lower, 8%
- CC1(OC(=O)N2CCN(c3ncc(OCc4ccncc4C#N)cn3)CC2)COC1 [Example 81, 3-methyloxetan-3-yl 4-(5-((3-cyanopyridin-4-yl)methoxy)pyrimi-din-2-yl)piperazine-1-carboxylate] — higher, 143%
- CC(C)C(=O)Nc1ncc(COc2cnc(N3CCN(C(=O)OC(C)(C)C)CC3)nc2)cn1 [Example 94, Tert-butyl 4-(5-((2-isobutyramidopyrimidin-5-yl)methoxy)pyrimidin-2-yl)piperazine-1-carboxylate] — lower, 44%
- C[C@@H]1CN(C(=O)OC(C)(C)C)CCN1c1ncc(OCc2ccncc2)cn1 [Example 19, (R)-Tert-butyl 3-methyl-4-(5-(pyridin-4-ylmethoxy)pyrimidin-2-yl)piperazine-1-carboxylate] — lower, 68%
- CC(C)(C)OC(=O)N1CCN(c2ncc(OCc3ccc(S(C)(=O)=O)cc3F)cn2)CC1 [Example 36, tert-butyl 4-(5-(2-fluoro-4-(methylsulf-onyl)benzyl-oxy)pyrimi-din-2-yl)piperazine-1-carboxylate] — higher, 128%
- CC(OC(=O)N1CCN(c2ncc(OCc3ccc(S(C)(=O)=O)cc3)cn2)CC1)C(F)(F)F (stereo not shown) [Example 66, 1,1,1-Trifluoropropan-2-yl 4-(5-(4-(methylsulfonyl)benzyloxy)pyrimidin-2-yl)piperazine-1-carboxylate] — lower, 56%
- CC(C)c1nc(N2CCN(c3ncc(OCc4ccc(S(C)(=O)=O)cc4)cn3)[C@H](C)C2)no1 [Example 89] — lower, 73%
- CC(C)(C#N)OC(=O)N1CCN(c2ncc(OCc3ccc(S(C)(=O)=O)cc3)cn2)CC1 [Example 70, 2-Cyanopropan-2-yl 4-(5-(4-(methylsulfonyl)benzyloxy)pyrimidin-2-yl)piperazine-1-carboxylate] — lower, 28%
- CC(C)(C)OC(=O)N1CCN(c2ncc(OCc3ccc(-n4cccn4)nc3)cn2)CC1 [Example 5, tert-butyl 4-(5-((6-(1H-pyrazol-1-yl)pyridin-3-yl)methoxy)pyrimidin-2-yl)piperazine-1-carboxylate] — lower, 82%
- C[C@@H]1CN(C(=O)OC(C)(C)C#N)CCN1c1ncc(OCc2ccc(S(C)(=O)=O)cc2)cn1 [Example 71, (R)-2-cyanopropan-2-yl 3-methyl-4-(5-(4-(methylsulfonyl)benzyloxy)pyrimidin-2-yl)piperazine-1-carboxylate] — lower, 73%
- CC(C)(C)NC(=O)c1ccc(COc2cnc(N3CCN(C(=O)OC(C)(C)C)CC3)nc2)cc1 [Example 47, tert-butyl 4-(5-(4-(tert-butylcarbamoyl)benzyloxy)pyrimidin-2-yl)piperazine-1-carboxylate] — higher, 109%
- C[C@@H]1CN(C(=O)OC(C)(C)C)CCN1c1ncc(OCc2ccc(C(=O)N(C)CCO)cc2)cn1 [Example 21, (R)-tert-butyl 4-(5-(4-((2-hydroxyethyl) (methyl)carba-moyl)benzyl-oxy)pyrimidin-2-yl)-3-methyl-piperazine-1-carboxylate] — higher, 100%
- CC1(OC(=O)N2CCN(c3ncc(OCc4ccc(S(C)(=O)=O)cc4)cn3)CC2)COC1 [Example 79, 3-Methyloxetan-3-yl 4-(5-(4-(methylsulfonyl)benzyloxy)pyrimidin-2-yl)piperazine-1-carboxylate] — lower, 37%
- N#Cc1cnccc1COc1cnc(N2CCN(c3ncc(F)cn3)CC2)nc1 [Example 40, 4-((2-(4-(5-Fluoropyrimidin-2-yl)piperazin-1-yl)pyrimidin-5-yloxy)methyl)nicotinonitrile] — lower, 90%
- COc1cc(COc2cnc(N3CCN(C(=O)OC(C)(C)C)CC3)nc2)c(F)cn1 [Example 8, tert-butyl 4-(5-((5-fluoro-2-methoxy-pyridin-4-yl)methoxy)pyrimidin-2-yl)piperazine-1-carboxylate] — lower, 26%
- CC(C)(C)OC(=O)N1CCN(c2ncc(OCc3ccncn3)cn2)CC1 [Example 9, tert-butyl 4-(5-(pyrimidin-4-ylmethoxy)pyrimidin-2-yl)piperazine-1-carboxylate] — lower, 61%
- CC(C)C(=O)Nc1ccc(COc2cnc(N3CCN(C(=O)OC(C)(C)C)CC3)nc2)cc1 [Example 14, tert-butyl 4-(5-(4-isobutyramido-benzyloxy)pyrimidin-2-yl)piperazine-1-carboxylate] — lower, 78%
- CC(C)(C)OC(=O)N1CCN(c2ncc(OCc3ccc(NC(=O)C(C)(C)C)cc3)cn2)CC1 [Example 15, tert-butyl 4-(5-(4-pivalamido-benzyloxy)pyrimidin-2-yl)piperazine-1-carboxylate] — lower, 80%
- Cc1cc(COc2cnc(N3CCN(C(=O)OC(C)(C)C)CC3)nc2)ccc1C(=O)NC(C)C [Example 54, Tert-butyl 4-(5-(4-(isopropylcarbamoyl)-3-methylbenzyloxy)pyrimidin-2-yl)piperazine-1-carboxylate] — lower, 51%
- C[C@@H]1CN(C(=O)OC2CCOCC2)CCN1c1ncc(OCc2ccncc2C#N)cn1 [Example 82, (R)-Tetrahydro-2H-pyran-4-yl 4-(5-((3-cyanopyridin-4-yl)methoxy)pyrimidin-2-yl)-3-methylpiperazine-1-carboxylate] — higher, 102%
- CC(C)(C)OC(=O)N1CCN(c2ncc(OCc3ccc(S(C)(=O)=O)nc3)cn2)CC1 [Example 30, Tert-butyl 4-(5((6-(methylsulfonyl)pyridin-3-yl)methoxy)pyrimidin-2-yl)piperazine-1-carboxylate] — lower, 86%
- CC(C)(C)OC(=O)N1CCN(c2ncc(OCc3ccc(C(=O)N4CCOCC4)cc3)cn2)CC1 [Example 53] — lower, 44%
- CC(C)(C)OC(=O)N1CCN(c2ncc(OCc3ccc(S(=O)(=O)CCN4CCOCC4)cc3)cn2)CC1 [Example 92, Tert-butyl 4-(5-(4-(2-morpholinoethylsulfonyl)benzyloxy)pyrimidin-2-yl)piperazine-1-carboxylate] — lower, 68%
- CC(C)OC(=O)N1CCN(c2ncc(OCc3ccncc3C#N)cn2)CC1 [Example 58, isopropyl 4-(5-((3-cyanopyridin-4-yl)methoxy)pyrimidin-2-yl)piperazine-1-carboxylate] — higher, 154%
- N#Cc1cnccc1COc1cnc(N2CCN(C(=O)OCC(F)(F)F)CC2)nc1 [Example 106, 2,2,2-trifluorocthyl 4-(5-((3-cyanopyridin-4-yl)mcthoxy)pyrimidin-2-yl)pipcrazinc-1-carboxylate] — higher, 193%
- CS(=O)(=O)c1ccc(COc2cnc(N3CCN(c4ncc(F)cn4)CC3)nc2)cc1 [Example 42, 5-fluoro-2-(4-(5-(4-(methylsulfonyl)benzyloxy)pyrim-idin-2-yl)piperazin-1-yl)pyrimidine] — lower, 64%
- N#Cc1cnccc1COc1cnc(N2CCN(C(=O)OC3CCC3)CC2)nc1 [Example 65, cyclobutyl 4-(5-((3-cyanopyri-din-4-yl)methoxy)pyrimidin-2-yl)piperazine-1-carboxylate] — higher, 164%
- CC1(OC(=O)N2CCN(c3ncc(OCc4ccncc4C#N)cn3)CC2)CC1 [Example 62, 1-methylcyclo-propyl 4-(5-((3-cyanopyridin-4-yl)methoxy)pyrimidin-2-yl)piperazine-1-carboxylate] — higher, 208%
- CC(C)(C)OC(=O)N1CCN(c2ncc(OCc3ccc(S(=O)(=O)C4CC4)cc3)cn2)CC1 [Example 84, Tert-butyl 4-(5-(4-(cyclopropyl-sulfonyl)benzyloxy)pyrimidin-2-yl)pipcrazinc-1-carboxylate] — lower, 48%
- CC(C)NC(=O)c1ccc(COc2cnc(N3CCN(C(=O)OC(C)(C)C)CC3)nc2)cc1 [Example 46, tert-butyl 4-(5-(4-(isopropylcarba-moyl)benzyl-oxy)pyrimidin-2-yl)piperazine-1-carboxylate] — higher, 94%

Same assay, conditions: Method A; HEK 293s cells over-expressing human GPR119; midpoint of dose response curve; selected examples

Point of comparison: `C[C@@H]1CN(C(=O)OC2CCOCC2)CCN1c1ncc(OCc2ccncc2C#N)cn1` [Example 82, (R)-Tetrahydro-2H-pyran-4-yl 4-(5-((3-cyanopyridin-4-yl)methoxy)pyrimidin-2-yl)-3-methylpiperazine-1-carboxylate], EC50 675 nM. Against it:
- CC(C)(C)OC(=O)N1CCN(c2ncc(OCc3ccc(S(C)(=O)=O)cc3F)cn2)CC1 [Example 36, tert-butyl 4-(5-(2-fluoro-4-(methylsulf-onyl)benzyl-oxy)pyrimi-din-2-yl)piperazine-1-carboxylate] — 36-fold lower, 19 nM
- C[C@@H]1CN(C(=O)OC(C)(C)C)CCN1c1ncc(OCc2ccc(C(=O)N(C)CCO)cc2)cn1 [Example 21, (R)-tert-butyl 4-(5-(4-((2-hydroxyethyl) (methyl)carba-moyl)benzyl-oxy)pyrimidin-2-yl)-3-methyl-piperazine-1-carboxylate] — 3.3-fold lower, 202 nM
- CS(=O)(=O)c1ccc(COc2cnc(N3CCN(c4ncc(F)cn4)CC3)nc2)cc1 [Example 42, 5-fluoro-2-(4-(5-(4-(methylsulfonyl)benzyloxy)pyrim-idin-2-yl)piperazin-1-yl)pyrimidine] — 4.3-fold lower, 156 nM
- CC1(OC(=O)N2CCN(c3ncc(OCc4ccncc4C#N)cn3)CC2)CC1 [Example 62, 1-methylcyclo-propyl 4-(5-((3-cyanopyridin-4-yl)methoxy)pyrimidin-2-yl)piperazine-1-carboxylate] — 5.8-fold lower, 116 nM
- CC(C)NC(=O)c1ccc(COc2cnc(N3CCN(C(=O)OC(C)(C)C)CC3)nc2)cc1 [Example 46, tert-butyl 4-(5-(4-(isopropylcarba-moyl)benzyl-oxy)pyrimidin-2-yl)piperazine-1-carboxylate] — 21-fold lower, 32 nM

Same assay, conditions: human GPR119 cAMP assay; top concentration 30 μM

With `C[C@@H]1CN(C(=O)OC2CCOCC2)CCN1c1ncc(OCc2ccc(S(C)(=O)=O)cc2)cn1` [tetrahydropyran-4-yl (3R)-3-methyl-4-[5-[(4-methylsulfonylphenyl)methoxy]pyrimidin-2-yl]piperazine-1-carboxylate] the “significant activity at a top concentration of 30 μM” value was “did not show significant activity”.
For `COc1cc(COc2cnc(N3CCN(C(=O)OC(C)(C)C)CC3)nc2)cc(OC)n1` [tert-butyl 4-[5-[(2,6-dimethoxy-4-pyridyl)methoxy]pyrimidin-2-yl]piperazine-1-carboxylate], the “significant activity at a top concentration of 30 μM” value was “did not show significant activity”.
